Experimental data: patent US20090191160A1, “Methods of producing pluripotent stem-like cells” (University of Dayton, priority 2007, published 2009)

How the values were obtained:
Format in all cases: cell-based, mouse
ES-like cells = assay: Maintenance of ES-like cells in SR-containing medium with growth factors; details: bFGF 4 ng/ml and Lif added together to SR-containing medium
Protocol: (§1) Mouse embryonic skin fibroblast cells (MEFs) derived form 13.5 day mouse embryos and adult mouse primary dermal fibroblasts derived from adult mouse skin were cultured in DMEM Dulbecco's modified Eagle's medium (DMEM) with 10% Fetal Bovine Serum (FBS) at 37° C., 10% CO2. After the cells were grown to confluence, the cells were trypsinized, then suspended in SR-containing medium or basic medium without serum. About 10^5 mouse skin fibroblast cells were transferred to 3 ml SR-containing medium in a 6 well plate. SR-containing medium contained basic medium that included DMEM/F12 (Invitrogen 11330-032), 1× non-Essential Amino Acids (Invitrogen 11140-050), 1× L-Glutamine (Invitrogen 25030-018), […] β-mercaptoethanol and 20% Knockout Serum Replacer (Invitrogen 10828-028). 4 ng/mL bFGF (R&D System Cat# 233-FB) and Leukemia inhibitory factor Lif (ESGRO®, Chemicon ESG1107) were added to the SR-containing medium to prevent stem-like cells from differentiating.
To investigate the possibility that serum replacement (SR)-containing medium can promote the reprogramming and dedifferentiation of skin fibroblast cells into pluripotent stem-like cells, mouse skin fibroblast cells were cultured in fibroblast growth medium, and were then transferred by trypsinization to plates holding SR-containing medium. […]

Ca^2+ influx = assay: Ca2+ signalling in fibroblast cells after transfer into SR-containing medium; details: after transfer of fibroblast cells
Source text: (§2) (Up-regulation of FGFR3 had been previously shown to play an important role in the reprogramming of primordial germ cells into stem-like cells (Skottman et al. Stem Cell 24:151-167).)

[1] = test system: fibroblast growth factor receptor 3 (FGFR3); assay: Western blotting for FGF Receptor-3 protein in fibroblast cells; details: Western blot; for FGFR3 expression: Thapsigargin 1 ug/ml, 24 hour timepoint
Source text: […] […] All Images were acquired in the inverted microscope (Nikon TS100) at 10× magnification using the MetaMorph Imaging Software, and the scale bar is 100 μm.
as §2
In view of the observed involvement of the FGF signaling pathway, it was then examined whether Ca^2+ might be an important secondary messenger responsible for regulating the reprogramming of fibroblast cells induced by SR containing medium activation of the FGF signaling pathway. Thapsigargin, a tight-binding inhibitor for sarco/endoplasmic reticulum Ca^2+ ATPase, was added to the SR-containing medium at a concentration of 1 μg/ml (Durcova-Hills et al. Stem Cell 24:1441).

skin fibroblast cells = assay: Conversion (dedifferentiation) of skin fibroblast cells into stem cell-like cells, phase contrast morphology; details: for reprogramming / dedifferentiation of skin fibroblast cells into stem cell-like cells: basic medium with SR or lipid-rich BSA versus basic medium only; for conversion of skin fibroblast cells into stem cell-like cells: Thapsigargin 1 μg/ml added to SR-containing medium
Protocol: as §1
Conversion of fibroblast cells to induced pluripotent stem-like cells can be achieved by culturing a mouse embryonic skin fibroblast (MEF), mouse adult skin fibroblast (MAF) or human skin fibroblast cell in DMEM media having 10% fetal bovine serum (FBS) until the cells are confluent. Serum-replacement (SR)-containing media and 0.25% trypsin/EDTA are then warmed (e.g., at 37° C. in a water bath). Media is aspirated from the fibroblast cell culture plate, cells are washed with 1×PBS, and trypsinized via addition of 2 mls of trypsin/EDTA for one minute, followed by removal of all the trypsin solution. 2 mls of the SR human ES medium or DMEM/F12 medium is then added to the cells (without FBS), and cells are resuspended in the medium using a 5 ml pipet, pipeting up and down until no large clumps remain. About 10^5 cells/well are then added to a six well plate, with each well containing 3 mls of SR human ES medium. The cells are then mixed in this media. Cells are then placed in a warm incubator (e.g., 37° C. at 5% or 10% CO2). The cells are passaged every 3 days for a total of five or more passages. Ingredients of SR human stem cell culture medium are: 400 ml DMEM/F12 (Invitrogen 11330-032), 5 ml non-Essential Amino Acids (Invitrogen 11140-050), 2.5 ml L-Glutamine (Invitrogen 25030-018), […] β-mercaptoethanol (Sigma 7522, add 3.5 ul) and 100 ml Knockout Serum Replacer (Invitrogen 10828-028). Optionally, 4 ng/mL bFGF (R&D System Cat# 233-FB) is present. To make FGF stock, 1 ml of DMEM/F12 was added to dissolve 1 vial of 10 ug of FGF, with this solution aliquotted into five vials, then stored at −20° C. bFGF needed to be added freshly to the medium every time the method was performed. Lif was also needed for mouse cell cultures. Formulation of the SR component of serum-free medium also contained AgNO3 and other trace elements. For AgNO3-containing media, 1000× AgNO3 was added to the medium to a final concentration of 0.0001 mg/L.
To investigate the possibility that serum replacement (SR)-containing medium can promote the reprogramming and dedifferentiation of skin fibroblast cells into pluripotent stem-like cells, mouse skin fibroblast cells were cultured in fibroblast growth medium, and were then transferred by trypsinization to plates holding SR-containing medium. […] Twenty-four hours post-transfer, a majority of cells became small, round, bright-edged granulated cells (FIG. 1a). […]

Oct4 promoter = assay: Methylation status of the Oct4 promoter in fibroblast cells; details: before and after contact with SR medium
embryonic bodies = assay: In vitro differentiation of embryoid bodies from SR-iPS cells; details: 2 μM trans-retinoic acid, 10 days, gelatin coated plates
Protocol: One of the most important characteristics of stem-like cells is pluripotency. To investigate the SR-iPS stem cells have the multilineage differention potential as embryonic stem cells in vitro, different passage of iPS cells were used to form embryo bodis (EBs) one week's culture without passing in SR medium without Lif. The EBs continues to differentiate on gelatin coated plates and induced by 2 μM trans-retinoic acid for an additional 10 days. Expression of endoderm-, mesoderm-, and ectoderm-specific markers was examined by using antibodies raised against α-fetoprotein, smooth muscle actin, and β-tubulin III, respectively (21). For more specific cell lineage such as cardiomyocyte and smooth muscle cells differentiation, EBs were transferred to collagen-coated plate which contained α-MEM (cardiac differentiation medium) supplemented with 10 ng/ml platelet-derived growth factor-BB (PDGF-BB). Vascular endothelial growth medium supplemented with 50 ng/ml vascular endothelial growth factor (VEGF) was used for the smooth muscle growth differentiation. Two weeks after culturing the EBs in these medium, the cell morphology were examined by Immunofluorescent Staining with Troponin C and smooth muscle actin antibodies.

## bFGF: basic fibroblast growth factor (R&D System Cat# 233-FB)
ES-like cells
  division and differentiation of ES-like cells: promote division of the ES-like cells, while preventing differentiation of these cells

## lipid-rich BSA: AlbuMAX I is the high-lipid BSA (Invitrogen)
Ca^2+ influx
  Ca^2+ influx / signalling: induced
[1]; 2, 4, 8, 12 hours after transfer
  FGFR3 expression after transfer into medium: induced
Skin fibroblast cells
  reprogramming / dedifferentiation of skin fibroblast cells into stem cell-like cells: promoted the dedifferentiation of skin fibroblast cells into stem cell-like cells
Skin fibroblast cells; listed as high-lipid BSA
  reprogramming / dedifferentiation of skin fibroblast cells into stem cell-like cells: required to create stem-like cells
Oct4 promoter
  methylation status of the Oct4 promoter: induced

## C/C=C(/C)C(=O)O[C@H]1C(C)=C2[C@H]([C@@H]1OC(=O)CCCCCCC)[C@@](C)(OC(C)=O)C[C@H](OC(=O)CCC)[C@@]1(O)[C@H]2OC(=O)[C@@]1(C)O [Thapsigargin, reference compound]
[1]
  FGFR3 expression: down-regulated FGF receptor 3 (FGFR3) expression
[1]; listed as thapsigargin
  FGFR3 expression: prevented
Skin fibroblast cells
  conversion of skin fibroblast cells into stem cell-like cells: prevented conversion of the fibroblast cells into stem-like cells
Skin fibroblast cells; listed as thapsigargin
  conversion of skin fibroblast cells into stem cell-like cells: prevented

## CCCCC/C=C\C/C=C\C/C=C\C/C=C\CCCC(=O)O [acarchodonic acid]
Skin fibroblast cells
  reprogramming / dedifferentiation of skin fibroblast cells into stem cell-like cells: required to create stem-like cells

## CC1=C(/C=C/C(C)=C/C=C/C(C)=C/C(=O)O)C(C)(C)CCC1 [retinonic acid, trans-retinoic acid]
Embryonic bodies
  differentiation into three germ layers (AFP, SM-Actin, β-tubulin III staining): differentiation of the embryonic bodies into three germ layers
